Data on two compounds can be found in US10471024B2, “Increased effectiveness of allylamine drug compounds for topical treatment of fungal infections of the skin and skin appendages” (BIOPHILE CORPORATION, LTD., priority 2007, dated 2019).

The nature of series [1]: zeta potential of terbinafine hydrochloride solution. The class given is physicochemical. To be noted: 0.02 g/ml solution. The text has this: Prototype measurements of zeta potential of the 0.02 g/ml terbinafine hydrochloride solution and the result is positive at pH of below 5.11. However, there are other anions in the solution, e.g., chloride ion and hydroxide ion (sodium hydroxide was used to adjust the solution pH) that make negative values of zeta potential. [table]

The conditions of series [2]: 0.5% in methanol/water (4:6), 25 degrees Celsius; cited from earlier work.
A short description of series [3]: theoretical fraction of positively charged terbinafine from pKa. The class given is physicochemical. The text has this:
The positive charge can be determined by examining the pKa of the active ingredient. […] At pH<pKa, the positively charged terbinafine is more than 50%. When pH>pKa the positively charged terbinafine is less than 50%.

Counter-ions that a name gives are not always drawn.

With `CN(C/C=C/C#CC(C)(C)C)Cc1cccc2ccccc12` [Terbinafine hydrochloride], the “Zeta Potential” value in series [1] (pH 3.68) was “+12.1 mV”; in series [1] (pH 5.11), “+31.2 mV”; in series [1] (pH 7.07 (adjusted with sodium hydroxide)) it was −34.0 mV; in series [1] (pH 8.73 (adjusted with sodium hydroxide)) it was −58.8 mV. In series [2], the “pH of a solution” value is given as “approximately 4.7”.
As to `CN(C/C=C/C#CC(C)(C)C)Cc1cccc2ccccc12` [Terbinafine], the figures for the positively charged terbinafine result in series [3] (pH 5.10) and in series [3] (pH 9.10) were “about 99%” and “about 1%”, respectively. Moreover, in series [3] (pH 7.10), the “positively charged terbinafine molecules” value came out at 50%.
